Source: patent publication US10550105B2 (Ribon Therapeutics Inc., priority 2018, dated 2020)

Molecular target: PARP7 (Homo sapiens (Human), UniProt Q7Z3E1)
Experiment: Enzymatic assay for inhibition of PARP7: TR-FRET displacement of biotinylated Probe A from the TIPARP active site
Format: binding
Conditions: Table A-1
How it was run: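 Read-out: 665/615 nm emission ratio (ex 320 nm, 90 μs delay) indexing bound TIPARP–Probe A. Final incubation 30 min, 25° C; compounds in dose response. Curve fit of % inhibition vs concentration; Hill slope floating or fixed at 1 (3-parameter).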

Sequence of PARP7 (Q7Z3E1 whole entry): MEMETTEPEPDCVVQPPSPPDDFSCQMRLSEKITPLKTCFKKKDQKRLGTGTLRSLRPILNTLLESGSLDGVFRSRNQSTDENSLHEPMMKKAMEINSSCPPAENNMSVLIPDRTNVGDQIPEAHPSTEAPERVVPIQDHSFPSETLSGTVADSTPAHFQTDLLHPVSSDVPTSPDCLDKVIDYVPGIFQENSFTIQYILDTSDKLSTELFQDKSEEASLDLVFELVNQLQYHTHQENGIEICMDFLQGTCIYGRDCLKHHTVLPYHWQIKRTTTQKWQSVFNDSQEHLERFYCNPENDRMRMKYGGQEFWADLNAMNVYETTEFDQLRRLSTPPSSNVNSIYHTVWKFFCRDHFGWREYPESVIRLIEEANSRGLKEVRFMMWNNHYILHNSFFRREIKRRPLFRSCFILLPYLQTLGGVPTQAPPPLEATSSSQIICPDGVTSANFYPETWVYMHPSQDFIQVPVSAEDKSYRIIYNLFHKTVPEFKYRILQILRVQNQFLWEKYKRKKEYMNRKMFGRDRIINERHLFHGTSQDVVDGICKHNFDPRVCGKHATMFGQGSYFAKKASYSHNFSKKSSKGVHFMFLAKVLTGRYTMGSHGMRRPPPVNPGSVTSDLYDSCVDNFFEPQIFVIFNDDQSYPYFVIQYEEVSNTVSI

SMILES | IC50 [nM]
O=C(CCOC[C@@H]1CCCN1c1cn[nH]c(=O)c1C(F)(F)F)NC1CCC(Oc2ccccn2)CC1 (stereo partly drawn) [Example 84, 3-[[(2S)-1-[6-oxo-5-(trifluoromethyl)-1,6-dihydropyridazin-4-yl]pyrrolidin-2-yl]methoxy]-N-[4-(pyridin-2-yloxy)cyclohexyl]propanamide] | 100 to 1000
C[C@@H](CNCCC(=O)N1CCN(c2ncc(C(F)(F)F)cn2)CC1)Oc1cn[nH]c(=O)c1C(F)(F)F [Example 615, (S)-5-((1-((3-Oxo-3-(4-(5-(trifluoromethyl)pyrimidin-2-yl)piperazin-1-yl)propyl)amino)propan-2-yl)oxy)-4-(trifluoromethyl)pyridazin-3(2H)-one] | 100 to 1000
C[C@@H](COCCC(=O)N1CCN(c2ncc(Cl)cn2)CC1)Nc1cn[nH]c(=O)c1C(F)(F)F [Example 562, 5-[[(2S)-1-[3-[4-(5-Chloropyrimidin-2-yl)piperazin-1-yl]-3-oxopropoxy]propan-2-yl]amino]-4-(trifluoromethyl)-2,3-dihydropyridazin-3-one] | < 100
C[C@@H](COCCC(=O)N1CCN(c2ccc(C#N)cn2)CC1)Nc1cn[nH]c(=O)c1C(F)(F)F [Example 513A, (S)-6-(4-(3-(2-(6-Oxo-5-(trifluoromethyl)-1,6-dihydropyridazin-4-ylamino)propoxy)propanoyl)piperazin-1-yl)nicotinonitrile] | < 100
C[C@@H](COCCC(=O)N1CCN(c2ncc(C(F)(F)F)cn2)CC1)Nc1cn[nH]c(=O)c1Br [Example 601, 4-Bromo-5-[[(2S)-1-(3-oxo-3-[4-[5-(trifluoromethyl)pyrimidin-2-yl]piperazin-1-yl]propoxy)propan-2-yl]amino]-2,3-dihydropyridazin-3-one] | < 100
O=C(c1cncc(OCC2c3ccccc3CN2c2cn[nH]c(=O)c2C(F)(F)F)c1)N1CCN(c2ccc(C(F)(F)F)cn2)CC1 (centres unmarked) [Example 374, 4-(Trifluoromethyl)-5-(1-(((5-(4-(5-(trifluoromethyl)pyridin-2-yl)piperazine-1-carbonyl)pyridin-3-yl)oxy)methyl)isoindolin-2-yl)pyridazin-3(2H)-one] | < 100
CN(C)C(=O)c1cccc2c1CN(c1cn[nH]c(=O)c1C(F)(F)F)C2 [Example 277, N,N-Dimethyl-2-(6-oxo-5-(trifluoromethyl)-1,6-dihydropyridazin-4-yl)isoindoline-4-carboxamide] | 100 to 1000
COc1c(N2Cc3cccc(OCCO)c3C2)cn[nH]c1=O [Example 184, 5-(4-(2-Hydroxyethoxy)isoindolin-2-yl)-4-methoxypyridazin-3(2H)-one] | ≥ 1000
O=c1[nH]ncc(N2Cc3cccc(OCCN4CCCCC4)c3C2)c1C(F)(F)F [Example 213, 5-(4-(2-(Piperidin-1-yl)ethoxy)isoindolin-2-yl)-4-(trifluoromethyl)pyridazin-3(2H)-one] | 100 to 1000
O=C(CCOCCOc1cn[nH]c(=O)c1Cl)N1CCN(c2ncc(C(F)(F)F)cn2)CC1 [Example 520, 4-Chloro-5-[2-(3-oxo-3-[4-[5-(trifluoromethyl)pyrimidin-2-yl]piperazin-1-yl]propoxy)ethoxy]-2,3-dihydropyridazin-3-one] | < 100
C[C@@H](COCCC(=O)N1CCN(c2cnc(Cl)cn2)CC1)Nc1cn[nH]c(=O)c1C(F)(F)F [Example 644, (S)-5-((1-(3-(4-(5-Chloropyrazin-2-yl)piperazin-1-yl)-3-oxopropoxy)propan-2-yl)amino)-4-(trifluoromethyl)pyridazin-3(2H)-one] | < 100
Cc1ccc(N2CCN(C(=O)CCOC[C@H](C)Nc3cn[nH]c(=O)c3C(F)(F)F)CC2)nc1 [Example 671, (S)-5-((1-(3-(4-(5-Methylpyridin-2-yl)piperazin-1-yl)-3-oxopropoxy)propan-2-yl)amino)-4-(trifluoromethyl)pyridazin-3(2H)-one] | < 100
N#Cc1ccc(N2CCN(C(=O)C[C@H]3CC[C@@H](CNc4cn[nH]c(=O)c4C(F)(F)F)O3)CC2)nc1 (single isomer, unassigned) [Example 581 Isomer A] | < 100
O=C(c1cncc(OC[C@H]2c3ccccc3CN2c2cn[nH]c(=O)c2C(F)(F)F)c1)N1CCN(c2ccc(C(F)(F)F)cn2)CC1 [Example 385, (R)-4-(Trifluoromethyl)-5-(1-(((5-(4-(5-(trifluoromethyl)pyridin-2-yl)piperazine-1-carbonyl)pyridin-3-yl)oxy)methyl)isoindolin-2-yl)pyridazin-3(2H)-one] | 100 to 1000
C=CC(=O)Nc1cccc(OC[C@@H]2CCCN2c2cn[nH]c(=O)c2C(F)(F)F)c1 [Example 86, N-(3-[[(2S)-1-[6-oxo-5-(trifluoromethyl)-1,6-dihydropyridazin-4-yl]pyrrolidin-2-yl]methoxy]phenyl)prop-2-enamide] | 100 to 1000
O=C(C[C@H]1CC[C@@H](CNc2cn[nH]c(=O)c2C(F)(F)F)O1)N1CCN(c2ncc(C(F)(F)F)cn2)CC1 [Example 568 Isomer C, 5-((((2S,5R)-5-(2-Oxo-2-(4-(5-(trifluoromethyl)pyrimidin-2-yl)piperazin-1-yl)ethyl)tetrahydrofuran-2-yl)methyl)amino)-4-(trifluoromethyl)pyridazin-3(2H)-one] | < 100

SMILES | IC50 [nM]
N#Cc1cccnc1N1CCN(C(=O)CCOC[C@@H]2CCCN2c2cn[nH]c(=O)c2C(F)(F)F)CC1 [Example 463, (S)-2-(4-(3-((1-(6-Oxo-5-(trifluoromethyl)-1,6-dihydropyridazin-4-yl)pyrrolidin-2-yl)methoxy)propanoyl)piperazin-1-yl)nicotinonitrile] | < 100
CC(=O)N1CCC[C@H]2CN(c3cn[nH]c(=O)c3C(F)(F)F)C[C@H]21 [Example 143, 5-[(4aS,7aS)-1-acetyl-octahydro-1H-pyrrolo[3,4-b]pyridin-6-yl]-4-(trifluoromethyl)-2,3-dihydropyridazin-3-one] | ≥ 1000
CN1CCCC1COc1cc2c(cc1F)CN(c1cn[nH]c(=O)c1C(F)(F)F)C2 (centres unmarked) [Example 49, 5-[5-fluoro-6-[(1-methylpyrrolidin-2-yl)methoxy]-2,3-dihydro-1H-isoindol-2-yl]-4-(trifluoromethyl)-2,3-dihydropyridazin-3-one; formic acid] | < 100
C[C@@H](COCCC(=O)N1CC=C(c2ccc(C#N)cn2)CC1)Oc1cn[nH]c(=O)c1C(F)(F)F [Example 646, (S)-1′-(3-(2-((6-Oxo-5-(trifluoromethyl)-1,6-dihydropyridazin-4-yl)oxy)propoxy)propanoyl)-1′,2′,3′,6′-tetrahydro-[2,4′-bipyridine]-5-carbonitrile] | < 100
O=C(C[C@@H]1CC[C@@H](COc2cn[nH]c(=O)c2C(F)(F)F)O1)N1CCN(c2ncc(Cl)cn2)CC1 (single isomer, unassigned) [Example 565 Isomer A] | 100 to 1000
C[C@@H](COCCC(=O)N1CCN(c2ncc(Cl)cn2)CC1)Oc1cn[nH]c(=O)c1Br [Example 609, 4-Bromo-5-[[(2S)-1-[3-[4-(5-chloropyrimidin-2-yl)piperazin-1-yl]-3-oxopropoxy]propan-2-yl]oxy]-2,3-dihydropyridazin-3-one] | < 100
N#Cc1ccc(N2CCN(C(=O)c3cccc(OCCOC[C@H]4CCN(c5cn[nH]c(=O)c5C(F)(F)F)C4)c3)CC2)nc1 [Example 471, (S)-6-(4-(3-(2-((1-(6-oxo-5-(trifluoromethyl)-1,6-dihydropyridazin-4-yl)pyrrolidin-3-yl)methoxy)ethoxy)benzoyl)piperazin-1-yl)nicotinonitrile] | < 100
CC(C)[C@@H](COCCC(=O)N1CCN(c2ccc(C#N)cn2)CC1)Nc1cn[nH]c(=O)c1C(F)(F)F [Example 595, 6-(4-[3-[(2S)-3-Methyl-2-[[6-oxo-5-(trifluoromethyl)-1,6-dihydropyridazin-4-yl]amino]butoxy]propanoyl]piperazin-1-yl)pyridine-3-carbonitrile] | < 100
O=c1[nH]ncc(N2Cc3cccc(OCCN4CCNCC4)c3C2)c1C(F)(F)F [Example 227, 5-(4-(2-(Piperazin-1-yl)ethoxy)isoindolin-2-yl)-4-(trifluoromethyl)pyridazin-3(2H)-one] | < 100
C[C@@H](COCCC(=O)N1CCN(c2ncc(C(F)(F)F)cn2)CC1)Oc1cn[nH]c(=O)c1C(F)(F)F (single isomer, unassigned) [Example 544 Isomer A] | < 100
O=C(C[C@H]1CC[C@@H](CNc2cn[nH]c(=O)c2C(F)(F)F)O1)N1CCN(c2ccc(C(F)(F)F)cn2)CC1 (single isomer, unassigned) [Example 546 Isomer C] | < 100
NCCOc1ccc2c(n1)CN(c1cn[nH]c(=O)c1C(F)(F)F)C2 [Example 317, 5-(2-(2-Aminoethoxy)-5,7-dihydro-6H-pyrrolo[3,4-b]pyridin-6-yl)-4-(trifluoromethyl)pyridazin-3(2H)-one formic acid] | 100 to 1000
N#Cc1ccc(N2CCN(C(=O)CNCCOc3cccc4c3CN(c3cn[nH]c(=O)c3C(F)(F)F)C4)CC2)nc1 [Example 491, 6-(4-((2-((2-(6-Oxo-5-(trifluoromethyl)-1,6-dihydropyridazin-4-yl)isoindolin-4-yl)oxy)ethyl)glycyl)piperazin-1-yl)nicotinonitrile] | < 100
N#Cc1ccc(N2CCN(C(=O)CCOC[C@@H]3C[C@H](C(F)(F)F)CN3c3cn[nH]c(=O)c3C(F)(F)F)CC2)nc1 [Example 133, 6-[4-(3-[[(2S,4S)-1-[6-oxo-5-(trifluoromethyl)-1,6-dihydropyridazin-4-yl]-4-(trifluoromethyl)pyrrolidin-2-yl]methoxy]propanoyl)piperazin-1-yl]pyridine-3-carbonitrile] | < 100
COC[C@@H](COCCC(=O)N1CCN(c2ncc(C#N)s2)CC1)Nc1cn[nH]c(=O)c1C(F)(F)F [Example 713, (S)-2-(4-(3-(3-Methoxy-2-((6-oxo-5-(trifluoromethyl)-1,6-dihydropyridazin-4-yl)amino)propoxy)propanoyl)piperazin-1-yl)thiazole-5-carbonitrile] | < 100
COc1cccc2c1C(C)N(c1cn[nH]c(=O)c1C(F)(F)F)C2 (centres unmarked) [Example 309, 5-(7-Methoxy-1-methylisoindolin-2-yl)-4-(trifluoromethyl)pyridazin-3(2H)-one] | 100 to 1000
